PMC8958511, “Development of Sulfamoylated 4-(1-Phenyl-1H-1,2,3-triazol-4-yl)phenol Derivatives as Potent Steroid Sulfatase Inhibitors for Efficient Treatment of Breast Cancer” (Journal of Medicinal Chemistry, 2022)
Like-named read-outs stand apart in the source and are kept apart here. Values belong to the compound of their own block, whether it stands above or below them.

Tests used:
[1] = target: T1, STS isolated from the human placenta (Homo sapiens, UniProt P08842); assay: radioisotope enzymatic assay with STS isolated from human placenta and [3H]E1S; format: biochemical; conditions: 0.5 μM inhibitor concentration, substrate [3H]E1S, 3 nM, triplicate; for remaining activity at 0.5 µM: read-out: residual STS activity [%]
T1 construct: radioisotope enzymatic assay using STS isolated from the human placenta; from tissue; host or cells: human placenta
T1 sequence (P08842 22-583): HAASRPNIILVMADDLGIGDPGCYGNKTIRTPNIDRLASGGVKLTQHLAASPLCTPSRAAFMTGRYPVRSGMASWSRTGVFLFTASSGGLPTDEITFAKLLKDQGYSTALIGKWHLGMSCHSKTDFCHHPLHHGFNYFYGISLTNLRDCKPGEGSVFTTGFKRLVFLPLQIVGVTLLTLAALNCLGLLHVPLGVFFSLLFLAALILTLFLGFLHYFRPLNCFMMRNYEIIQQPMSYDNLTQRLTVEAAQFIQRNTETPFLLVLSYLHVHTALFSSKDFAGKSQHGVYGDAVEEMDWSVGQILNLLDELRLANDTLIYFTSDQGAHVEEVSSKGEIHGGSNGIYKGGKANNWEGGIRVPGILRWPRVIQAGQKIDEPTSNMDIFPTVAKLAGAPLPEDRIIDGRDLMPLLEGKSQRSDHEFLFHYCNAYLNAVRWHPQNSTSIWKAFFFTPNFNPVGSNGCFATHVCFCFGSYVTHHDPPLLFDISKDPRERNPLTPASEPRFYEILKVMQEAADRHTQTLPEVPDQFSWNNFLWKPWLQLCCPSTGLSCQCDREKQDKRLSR
Experimental: The inhibitory potency of the synthesized compounds was examined in two ways, including an enzymatic assay and the radioisotope cellular test. The enzymatic assay was performed using the STS enzyme isolated from human placenta and using radiolabeled [^3H]E1S as a substrate.
The total volume of the reaction mixture was 100 μL. […] After incubation, the reaction mixture (90 μL) was collected from each well, and the product formed by STS hydrolysis was extracted with toluene (0.5 mL). STS activity was measured using a MicroBeta radioluminometer (PerkinElmer). Enzymatic assays were carried out in triplicate.

[2] = target: T2, STS in MCF-7 cells (Homo sapiens, UniProt P08842); assay: radioisotope cellular assay with [3H]E1S in MCF-7 cells; format: cell-based; conditions: for remaining activity at 0.001 µM / remaining activity at 0.01 µM / remaining activity at 0.1 µM: MCF7, 20 h; for remaining activity at 0.001 µM: read-out: residual STS activity [%] 1 nM; for remaining activity at 0.01 µM: read-out: residual STS activity [%] 10 nM; for remaining activity at 0.1 µM: read-out: residual STS activity [%] 100 nM
T2 construct: The radioisotope cellular assay was performed using the MCF-7 cell line; endogenous in cells; host or cells: MCF-7
T2 sequence (P08842 22-583): T1 sequence (P08842 22-583)
Experimental: All compounds were initially tested for their in cell inhibitory action at a 100 nM concentration.
The inhibitory potency of the synthesized compounds was examined in two ways, including an enzymatic assay and the radioisotope cellular test. […] The radioisotope cellular assay was performed using the MCF-7 cell line in the presence of radiolabeled [^3H]E1S.
The evaluation of the inhibitory effect of each compound with breast cancer cells was performed using a previously described method (27) with some modifications. MCF-7 cells were maintained in Dulbecco’s modified Eagle medium supplemented with 10% fetal bovine serum and cultured in the above medium until 80% confluence. […] After incubation, the medium (0.45 mL) was collected from each well, and the product formed by STS hydrolysis was extracted with toluene (4 mL). STS activity was measured using a MicroBeta radioluminometer (PerkinElmer). Assays with MCF-7 cells were carried out in triplicate.

[3] = format: in vivo; conditions: Table S1, MTD study, 50 mg/kg
Experimental: The mice were thus weighed, and their general health was observed. […] At the end of the study, the mice were sacrificed by dislocation of the cervical vertebrae, and the internal organs were examined macroscopically.
The mice were weighed, and their general health was observed. […] At the end of the MTD study, the autopsy was performed, and the internal organs (liver, kidney, and spleen) were weighed and macroscopically assessed.

[4] = blood morphology, blood biochemistry and organ weights of mice with 67NR tumor
Experimental: At the end of the study, the autopsy of the animals was performed: blood was collected for further analyses of the morphology (Table S2, Supporting Information) and biochemistry (Table S3 and Figure S6, Supporting Information) and for the determination of the plasma estradiol level using the ELISA method.
Mice were injected orthotopically (in the mammary gland fat pad) with 67NR mouse mammary tumor cells derived from in vitro culture (1.5 × 10^5 cells/0.05 mL Hanks fluid/mouse). The growth of tumors has been observed. […] Animals were observed during the next 17 days and euthanized. During observation, body weight and tumor growth were monitored three times a week. The volume of the tumors was calculated according to the following formula: TV = a^2·b/2 [mm^3], (where: a—width and b—length of the tumor). Blood, tumor tissue, and liver were harvested during autopsy for further analyses. Blood aliquots (about 500 μL) were collected in EDTA containing vials for morphology analysis (Mythic 18 analyzer, Orphee), and then, the plasma was collected (centrifuged at 2500g for 15 min at 4 °C within 1 h after collection) for biochemical parameter analysis (Cobas c111, Roche).

[5] = tested on: 67NR mouse mammary tumor cells; assay: antitumor activity in 67NR orthotopic mouse breast carcinoma model; format: in vivo, BALB/c mice; conditions: 50 mg/kg b.w. per os
Experimental: The tumor volume (TV) and body weight were measured three times a week. Results for individual groups are reported in Figure S5, Supporting Information. Based on TV data, the tumor growth inhibition (TGI) was calculated for groups that received compounds and compared to that of the control group. […] The body weight of the treated animals was monitored during the study, and the body weight change (BWC) index was calculated (Figure 4). […] Body weight loss was observed between D2 and D11 and reached 4.5% at most.
The growth of tumors has been observed.

[6] = MCF-7 cells, 1 nM inhibitor, substrate [3H]E1S, 3 nM, triplicate
[7] = MCF-7 cells, 10 nM inhibitor, substrate [3H]E1S, 3 nM, triplicate
[8] = MCF-7 cells, 100 nM inhibitor, substrate [3H]E1S, 3 nM, triplicate
[9] = Table S2, mice with 67NR tumor, 50 mg/kg
[10] = Table S3, plasma, mice with 67NR tumor, 50 mg/kg per os, N=9

remaining activity at 0.5 µM [1]: 24.1 ± 1.2%
remaining activity at 0.001 µM [2, 6]: 79.4 ± 4.76%
remaining activity at 0.01 µM [2, 7]: 39.9 ± 2.19%
remaining activity at 0.1 µM [2, 8]: 2.1 ± 0.07%
melting point: 212 to 213 °C (dec.)
Structure (SMILES): NS(=O)(=O)Oc1ccc(-c2cn(-c3cccc(Br)c3)nn2)cc1 [4c, 4-(1-(3-Bromophenyl)-1H-1,2,3-triazol-4-yl)phenyl Sulfamate]

residual STS activity [%] [1]: 13.23 ± 0.66%
remaining activity at 0.5 µM [1]: 13.2%
remaining activity at 0.001 µM [2, 6]: 67.5 ± 3.71%
remaining activity at 0.01 µM [2, 7]: 31.8 ± 1.59%
remaining activity at 0.1 µM [2, 8]: 2 ± 0.11%
melting point: 228 to 229 °C (dec.)
Structure (SMILES): NS(=O)(=O)Oc1ccc(-c2cn(-c3cccc(I)c3)nn2)cc1 [4d, 4-(1-(3-Iodophenyl)-1H-1,2,3-triazol-4-yl)phenyl Sulfamate]

remaining activity at 0.5 µM [1]: 34.2 ± 1.71%
remaining activity at 0.1 µM [2, 8]: 3.1 ± 0.12%
melting point: 212 to 213 °C (dec.)
Structure (SMILES): Cc1cccc(-n2cc(-c3ccc(OS(N)(=O)=O)cc3)nn2)c1 [4e, 4-(1-(3-Methylphenyl)-1H-1,2,3-triazol-4-yl)phenyl Sulfamate]

remaining activity at 0.5 µM [1]: 52.5 ± 2.62%
remaining activity at 0.1 µM [2, 8]: 10.2 ± 0.61%
Structure (SMILES): Cc1cc(C)cc(-n2cc(-c3ccc(OS(N)(=O)=O)cc3)nn2)c1 [4f, 4-(1-(3,5-Dimethylphenyl)-1H-1,2,3-triazol-4-yl)phenyl Sulfamate]

remaining activity at 0.5 µM [1]: 43.4 ± 2.17%
remaining activity at 0.1 µM [2, 8]: 6.8 ± 0.24%
melting point: 210 to 212 °C (dec.)
Structure (SMILES): COc1cccc(-n2cc(-c3ccc(OS(N)(=O)=O)cc3)nn2)c1 [4g, 4-(1-(3-Methoxyphenyl)-1H-1,2,3-triazol-4-yl)phenyl Sulfamate]

remaining activity at 0.5 µM [1]: 55.1 ± 2.76%
remaining activity at 0.1 µM [2, 8]: 34.3 ± 1.88%
melting point: 225 to 227 °C (dec.)
Structure (SMILES): COc1cc(OC)cc(-n2cc(-c3ccc(OS(N)(=O)=O)cc3)nn2)c1 [4h, 4-(1-(3,5-Dimethoxyphenyl)-1H-1,2,3-triazol-4-yl)phenyl Sulfamate]

remaining activity at 0.5 µM [1]: 14.5 ± 0.73%
remaining activity at 0.1 µM [2, 8]: 2.6 ± 0.08%
melting point: 223 to 225 °C (dec.)
Structure (SMILES): CCc1cccc(-n2cc(-c3ccc(OS(N)(=O)=O)cc3)nn2)c1 [4i, 4-(1-(3-Ethylphenyl)-1H-1,2,3-triazol-4-yl)phenyl Sulfamate]

remaining activity at 0.5 µM [1]: 18.1 ± 0.9%
remaining activity at 0.01 µM [2, 7]: 73.4%
remaining activity at 0.1 µM [2, 8]: 2.4 ± 0.12%
melting point: 202 to 204 °C (dec.)
Structure (SMILES): CC(C)c1cccc(-n2cc(-c3ccc(OS(N)(=O)=O)cc3)nn2)c1 [4j, 4-(1-(3-Isopropylphenyl)-1H-1,2,3-triazol-4-yl)phenyl Sulfamate]

remaining activity at 0.5 µM [1]: 28.9 ± 1.44%
remaining activity at 0.1 µM [2, 8]: 5.9 ± 0.32%
melting point: 225 to 226 °C (dec.)
Structure (SMILES): NS(=O)(=O)Oc1ccc(-c2cn(-c3cccc([N+](=O)[O-])c3)nn2)cc1 [4k, 4-(1-(3-Nitrophenyl)-1H-1,2,3-triazol-4-yl)phenyl Sulfamate]

remaining activity at 0.5 µM [1]: 28.9 ± 1.44%
remaining activity at 0.1 µM [2, 8]: 8.3 ± 0.4%
melting point: 228 to 229 °C (dec.)
Structure (SMILES): NS(=O)(=O)Oc1ccc(-c2cn(-c3cc(Br)cc(Br)c3)nn2)cc1 [4l, 4-(1-(3,5-Dibromophenyl)-1H-1,2,3-triazol-4-yl)phenyl Sulfamate]

residual STS activity [%] [1]: 11.78 ± 0.59%
remaining activity at 0.5 µM [1]: 11.8%
remaining activity at 0.1 µM [2, 8]: 18.7%
melting point: 213 to 216 °C (dec.)
Structure (SMILES): NS(=O)(=O)Oc1ccc(-c2cn(-c3cc(I)cc(I)c3)nn2)cc1 [4m, 4-(1-(3,5-Diiodophenyl)-1H-1,2,3-triazol-4-yl)phenyl Sulfamate]

remaining activity at 0.01 µM [2, 7]: 60.2 ± 2.7%
remaining activity at 0.1 µM [2, 8]: 1.5 ± 0.05%
Structure (SMILES): NS(=O)(=O)Oc1ccc(-c2cn(-c3ccc(F)cc3)nn2)cc1 [5a]

remaining activity at 0.01 µM [2, 7]: 46.6 ± 1.63%
remaining activity at 0.1 µM [2, 8]: 1.5 ± 0.05%
Structure (SMILES): NS(=O)(=O)Oc1ccc(-c2cn(-c3ccccc3)nn2)cc1 [5b]

remaining activity at 0.1 µM [2, 8]: 5.5 ± 0.3%
Structure (SMILES): NS(=O)(=O)Oc1ccc(-c2cn(-c3ccccc3C(F)(F)F)nn2)cc1 [5c]

remaining activity at 0.1 µM [2, 8]: 14.7 ± 0.88%
Structure (SMILES): NS(=O)(=O)Oc1ccc(-c2cn(-c3cc(C(F)(F)F)cc(C(F)(F)F)c3)nn2)cc1 [5d]

Structure (SMILES): NS(=O)(=O)Oc1ccc(-c2cn(-c3ccc(F)c(F)c3F)nn2)cc1 [5e]
GRAN [3]: 11,1±1,9%
HCT [3]: 42,3±1,3%
HGB [3]: 15,7±0,5 g/dL
LIMF [3]: 85,6±2,6%
MCH [3]: 17,1±0,2 pg
MCHC [3]: 37,2±0,7 g/dL
MCV [3]: 46±0,5 fL
MON [3]: 3,3±1%
PLT [3]: 511±30 10x3/uL
RBC [3]: 9,2±0,4 10x6/uL
RDW [3]: 17,6±0,7%
WBC [3]: 4,0±0,4 10x3/uL
remaining activity at 0.001 µM [2]: 38.9%
remaining activity at 0.01 µM [2]: 24.2 ± 1.45%
remaining activity at 0.1 µM [2]: 1 ± 0.04%
IC50 ([2]; MCF-7 cells, substrate [3H]E1S, 3 nM): 2.95 ± 0.13 nM
HCT [4, 9]: 34,6±1,6%
HGB [4, 9]: 13,4±0,6 g/dL
MCH [4, 9]: 18,2±0,4 pg
MCHC [4, 9]: 38,6±0,5 g/dL
MCV [4, 9]: 47±1,2 fL
MPV [4, 9]: 4,9±0,1 fL
PCT [4, 9]: 0,280±0,04%
PDW [4, 9]: 25,6±3,8 fL
RBC [4, 9]: 7,4±0,4 x106/uL
RDW [4, 9]: 19,2±1,2%
WBC [4, 9]: 6,1±2,1 x103/uL
ALT [4, 10]: 31,1±10,7 U/L
AST [4, 10]: 97,4±24,9 U/L
creatinine [4, 10]: 5,33±1,21 umol/L
urea [4, 10]: 7,65±0,54 mmol/L
body weight of treated tumor-bearing mice (observation) [5]: An increase in body weight was observed
tumor growth inhibition (TGI) ([5]; 5 days a week, 67NR tumor, N = 9, vs control group): did not show any significant effect
mice responded to the treatment ([5]; nine mice/group): 6 mice poorly responded to the treatment
mice with much larger tumor than the mean control volume ([5]; nine mice/group): 2 mice
mice with tumor volume reduced by approx. 50% compared to the TV control ([5]; nine mice/group): 1 mice

remaining activity at 0.1 µM [2, 8]: 3 ± 0.14%
Structure (SMILES): NS(=O)(=O)Oc1ccc(-c2cn(-c3ccc(F)c(F)c3)nn2)cc1 [5f]

remaining activity at 0.01 µM [2, 7]: 48.2 ± 3.37%
Structure (SMILES): NS(=O)(=O)Oc1ccc(-c2cn(-c3ccc(F)cc3C(F)(F)F)nn2)cc1 [5h]

remaining activity at 0.001 µM [2, 6]: 71.8 ± 4.67%
remaining activity at 0.01 µM [2, 7]: 9.5 ± 0.48%
remaining activity at 0.1 µM [2, 8]: 1%
residual STS activity [%] 100 nM [2, 8]: 1.0%
Structure (SMILES): NS(=O)(=O)Oc1ccc(-c2cn(-c3ccc(OC(F)(F)F)cc3)nn2)cc1 [5i]

remaining activity at 0.1 µM [2, 8]: < 5%
Structure (SMILES): NS(=O)(=O)Oc1ccc(-c2cn(-c3ccc(C(F)(F)F)cc3)nn2)cc1 [5j]

remaining activity at 0.1 µM [2, 8]: 15.5 ± 0.93%
Structure (SMILES): NS(=O)(=O)Oc1ccc(-c2cn(-c3ccccc3OC(F)(F)F)nn2)cc1 [5k]

remaining activity at 0.01 µM [2, 7]: 59.9 ± 3.29%
Structure (SMILES): NS(=O)(=O)Oc1ccc(-c2cn(-c3cccc(C(F)(F)F)c3)nn2)cc1 [5m]

Structure (SMILES): Cc1cc(=O)oc2cc(OS(N)(=O)=O)ccc12 [COUMATE, reference compound]
remaining activity at 0.1 µM [2]: 51.8%
